The text below walks through data of patent US20120115852A1, “HETEROCYCLIC COMPOUNDS AS AUTOTAXIN INHIBITORS” (Merck Patent Gesellschaft Mit Beschrankter Haftung, priority 2009, published 2012).

This assay concerns the target T1, recombinant autotaxin (Homo sapiens, UniProt Q13822).
T1 construct: made in house; host or cells: Hi5 insect cells (baculovirus)
As to the kind of experiment: Autotaxin test (enzyme test), Amplex Red fluorescence with LPC substrate. The assay is classed as biochemical. As to conditions: autotaxin inhibition (enzyme test); for remaining activity at 10 µM: 10 μM compound, read-out: % Control at 10 μM. The method in brief:
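Activity was inferred from H2O2 made from released choline, detected as Amplex Red/peroxidase fluorescence (485 nm excitation, 612 nm emission, kinetic read). Beforehand, Hi5-expressed autotaxin sat with compound 30 min at 22° C, then hydrolysed 75 μM final LPC for 90 min at 37° C, pH 8 Tris buffer.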

Each structure is given as a SMILES string.

For `O=C1Nc2ccc(-c3ccccc3F)cc2C(=O)N2CCN(C(=O)C3CCCCC3)C[C@H]12` [Compound B19], the remaining activity at 10 µM was 41% and the IC50 was more than 1000 nM.

Consider `Cc1cccc(C(O)C(=O)N2CCN3C(=O)c4cc(-c5ccc(Cl)cc5)ccc4NC(=O)C3C2)c1` (stereo not shown) [Compound A44, 7-(4-Chlorophenyl)-2-(2-hydroxy-2-m-tolylacetyl)-1,3,4,11a-tetrahydro-2H,10H-2,4a,10-triaza-dibenzo[a,d]cycloheptene-5,11-dione], for which the remaining activity at 10 µM worked out at 48% and the IC50 was more than 1000 nM.

Take `CC(C)[C@@H](O)C(=O)N1CCN2C(=O)c3cc(-c4ccc(Cl)cc4F)ccc3NC(=O)C2C1` (stereo partly drawn) [Compound A77, 7-(4-Chloro-2-fluorophenyl)-2-((R)-2-hydroxy-3-methylbutyryl)-1,3,4,11a-tetrahydro-2H,10H-2,4a,10-triazadibenzo[a,d]cycloheptene-5,11-dione]: the remaining activity at 10 µM was determined as 11% and the IC50 was more than 1000 nM.

Turning to `CC(C)(C)CC(=O)N1CCN2C(=O)c3cc(-c4cc(F)c(Cl)c(F)c4)ccc3NC(=O)C2C1` (stereo not shown) [Compound A79, 7-(4-Chloro-3,5-difluorophenyl)-2-(3,3-dimethyl-butyryl)-1,3,4,11a-tetrahydro-2H,10H-2,4a,10-triazadibenzo[a,d]cycloheptene-5,11-dione], the remaining activity at 10 µM is -14% and the IC50 lay in the range of 100 to 1000 nM.

Turning to `CC(C)(C)CC(=O)N1CCN2C(=O)c3cc(-c4ccc(Cl)nc4)ccc3NC(=O)C2C1` (stereo not shown) [Compound A128, 7-(6-Chloropyridin-3-yl)-2-(3,3-dimethylbutyryl)-1,3,4,11a-tetrahydro-2H,10H-2,4a,10-triaza-dibenzo[a,d]cycloheptene-5,11-dione], the remaining activity at 10 µM came to 42% and the half-inhibitory concentration (IC50) was more than 1000 nM.

For `O=C1Nc2ccc(-c3ccc(Cl)cc3)cc2C(=O)N2CCN(C(=O)Oc3ccccc3)CC12` (stereo not shown) [Compound A167], the remaining activity at 10 µM was found to be 26% and the IC50 is more than 1000 nM.

Turning to `CS(=O)(=O)N1CCN2C(=O)c3cc(-c4ccccc4F)ccc3NC(=O)[C@H]2C1` [Compound B1], the remaining activity at 10 µM worked out at 75%.

Take `O=C1Nc2ccc(-c3ccc(Cl)cc3F)cc2C(=O)N2CCN(C(=O)n3ccnc3)C[C@H]12` [Compound 41, (R)-7-(4-Chloro-2-fluorophenyl)-2-(imidazole-1-carbonyl)-1,3,4,11a-tetrahydro-2H,10H-2,4a,10-triazadibenzo[a,d]cycloheptene-5,11-dione]: the remaining activity at 10 µM stood at 48% and the IC50 was more than 1000 nM.

With `O=C1Nc2ccc(-c3ccccc3F)cc2C(=O)N2CCN(C(=O)CCc3ccccn3)CC12` (stereo not shown) [Compound A20, 7-(2-Fluorophenyl)-2-(3-pyridin-2-ylpropionyl)-1,3,4,11a-tetrahydro-2H,10H-2,4a,10-triaza-dibenzo[a,d]cycloheptene-5,11-dione], the remaining activity at 10 µM worked out at 63% and the IC50 was more than 1000 nM.

For the molecule `CC(C)(C)[C@H](NC1CCNCC1)C(=O)N1CCN[C@@H](C(=O)Nc2ccc(-c3ccc(Cl)cc3F)cc2C(=O)O)C1` [Compound 47, 4′-chloro-4-({(R)-4-[(S)-3,3-dimethyl-2-(piperidin-4-ylamino)-butyryl]piperazine-2-carbonyl}amino)-2′-fluorobiphenyl-3-carboxylic acid], the remaining activity at 10 µM was 8% and the IC50 was in the range of 100 to 1000 nM.

For the molecule `CC(C)(C)[C@H](N)C(=O)N1CCN2C(=O)c3cc(-c4ccc(Cl)cc4F)ccc3NC(=O)[C@@H]2C1` [Compound A66, (S)-2-((S)-2-Amino-3,3-dimethylbutyryl)-7-(4-chloro-2-fluorophenyl)-1,3,4,11a-tetrahydro-2H,10H-2,4a,10-triazadibenzo[a,d]cycloheptene-5,11-dione], the remaining activity at 10 µM came out at 9.5% and the IC50 fell in the range of 100 to 1000 nM.

On to `O=C1Nc2ccc(-c3ccc(Cl)cc3)cc2C(=O)N2CCN(C(=O)c3cccs3)C[C@H]12` [Compound B20], for which the remaining activity at 10 µM was determined as 71%.

For the molecule `CO[C@H](C(=O)N1CCN2C(=O)c3cc(-c4ccc(Cl)cc4)ccc3NC(=O)C2C1)C(C)(C)C` (stereo partly drawn) [Compound A138, 7-(4-Chlorophenyl)-2-((S)-2-methoxy-3,3-dimethyl-butyryl)-1,3,4,11a-tetrahydro-2H,10H-2,4a,10-triazadibenzo[a,d]cycloheptene-5,11-dione], the remaining activity at 10 µM was -21% and the IC50 was in the range of 100 to 1000 nM.

`CC(C)(C)[C@H](N)C(=O)N1CCN2C(=O)c3cc(-c4ccc(Cl)cc4F)ccc3NC(=O)C2C1` (stereo partly drawn) [Compound A61, 2-((S)-2-Amino-3,3-dimethylbutyryl)-7-(4-chloro-2-fluorophenyl)-1,3,4,11a-tetrahydro-2H,10H-2,4a,10-triazadibenzo[a,d]cycloheptene-5,11-dione]: the remaining activity at 10 µM is -11% and the IC50 is more than 1000 nM.

Take `O=C1Nc2ccc(-c3ccc(Cl)cc3)cc2CN2CCN(C(=O)[C@@H]3CCCN3C3CCNCC3)CC12` (stereo partly shown) [Compound A176]: the remaining activity at 10 µM came to 63% and the IC50 was more than 1000 nM.

As for `O=C1Nc2ccc(-c3ccc(Cl)cc3)cc2C(=O)N2CCN(C(=O)CC3CCCC3)CC12` (stereo not shown) [Compound A25, 7-(4-Chlorophenyl)-2-(2-cyclopentylacetyl)-1,3,4,11a-tetrahydro-2H,10H-2,4a,10-triaza-dibenzo[a,d]cycloheptene-5,11-dione], the remaining activity at 10 µM was determined as 11% and the IC50 was more than 1000 nM.

For `CC1(C)SCN[C@@H]1C(=O)N1CCN2C(=O)c3cc(-c4ccc(Cl)cc4F)ccc3NC(=O)C2C1` (stereo partly drawn) [Compound A68, 7-(4-Chloro-2-fluorophenyl)-2-((R)-5,5-dimethyl-thiazolidine-4-carbonyl)-1,3,4,11a-tetrahydro-2H,10H-2,4a,10-triazadibenzo[a,d]cycloheptene-5,11-dione], the remaining activity at 10 µM is -18% and the IC50 was 100 to 1000 nM.

For `CC(C)(C)COC(=O)N1CCN2C(=O)c3cc(-c4ccc(Cl)cc4)ccc3NC(=O)C2C1` (stereo not shown) [Compound A168], the remaining activity at 10 µM is 52% and the IC50 was more than 1000 nM.

Take `O=C1Nc2ccc(-c3ccc(Cl)cc3)cc2C(=O)N2CCN(C(=O)OCc3ccccc3)CC12` (stereo not shown) [Compound 40, Benzyl 7-(4-chlorophenyl)-5,11-dioxo-3,4,5,10,11,11a-hexahydro-1H-2,4a,10-triazadibenzo[a,d]cycloheptene-2-carboxylate]: the remaining activity at 10 µM turned out to be 22% and the IC50 is more than 1000 nM.

Take `O=C1Nc2ccc(-c3ccc(Cl)cc3)cc2C(=O)N2CCN(C(=O)C3CCNCC3)C[C@H]12` [Compound B5]: the remaining activity at 10 µM turned out to be 64%.

`Cc1ccc(-c2ccc3c(c2)C(=O)N2CCN(C(=O)CC(C)(C)C)CC2C(=O)N3)c(C)c1` (stereo not shown) [Compound A86, 2-(3,3-Dimethylbutyryl)-7-(2,4-dimethylphenyl)-1,3,4,11a-tetrahydro-2H,10H-2,4a,10-triaza-dibenzo[a,d]cycloheptene-5,11-dione]: the remaining activity at 10 µM was 78%.

As for `CC(C)[C@H](N)C(=O)N1CCN2C(=O)c3cc(-c4ccc(Cl)cc4F)ccc3NC(=O)[C@@H]2C1` [Compound A62, (S)-2-((S)-2-Amino-3-methylbutyryl)-7-(4-chloro-2-fluorophenyl)-1,3,4,11a-tetrahydro-2H,10H-2,4a,10-triazadibenzo[a,d]cycloheptene-5,11-dione], the remaining activity at 10 µM was 27% and the IC50 was more than 1000 nM.

As to `CN(C)CCN1C(=O)C2CN(C(=O)CC(C)(C)C)CCN2C(=O)c2cc(-c3ccc(Cl)cc3)ccc21` (stereo not shown) [Compound A134, 7-(4-Chlorophenyl)-10-(2-dimethylaminoethyl)-2-(3,3-dimethylbutyryl)-1,3,4,11a-tetrahydro-2H,10H-2,4a,10-triazadibenzo[a,d]cycloheptene-5,11-dione], the remaining activity at 10 µM was -19% and the IC50 is more than 1000 nM.

Regarding `O=C1Nc2ccc(-c3ccc(Cl)cc3)cc2C(=O)N2CCN(C(=O)C(F)(F)F)CC12` (stereo not shown) [Compound A136, 7-(4-Chlorophenyl)-2-(2,2,2-trifluoroacetyl)-1,3,4,11a-tetrahydro-2H,10H-2,4a,10-triazadibenzo-[a,d]cycloheptene-5,11-dione], the remaining activity at 10 µM was determined as 63%.

For `O=C1Nc2ccc(-c3ccc(Cl)cc3)cc2C(=O)N2CCN(C(=O)CC3CCCCC3)CC12` (stereo not shown) [Compound A24, 7-(4-Chlorophenyl)-2-(2-cyclohexylacetyl)-1,3,4,11a-tetrahydro-2H,10H-2,4a,10-triaza-dibenzo[a,d]cycloheptene-5,11-dione], the remaining activity at 10 µM came to 67% and the IC50 is more than 1000 nM.

Consider `O=C1Nc2ccc(-c3cccc(C(F)(F)F)c3)cc2C(=O)N2CCN(C(=O)c3ccccc3)C[C@H]12` [Compound B11], for which the remaining activity at 10 µM is 85%.

`Cn1cncc1C(=O)N1CCN2C(=O)c3cc(-c4ccc(Cl)cc4F)ccc3NC(=O)C2C1` (stereo not shown) [Compound A67, 7-(4-Chloro-2-fluorophenyl)-2-(3-methyl-3H-imidazole-4-carbonyl)-1,3,4,11a-tetrahydro-2H,10H-2,4a,10-triazadibenzo[a,d]cycloheptene-5,11-dione]: the remaining activity at 10 µM turned out to be 19% and the IC50 was more than 1000 nM.

As for `O=C1Nc2ccc(-c3ccccc3F)cc2C(=O)N2CCN(C(=O)[C@@H]3CSCN3)C[C@@H]12` [Compound A16, (S)-7-(2-Fluorophenyl)-2-((R)-thiazolidine-4-carbonyl)-1,3,4,11a-tetrahydro-2H,10H-2,4a,10-triazadibenzo[a,d]cycloheptene-5,11-dione], the remaining activity at 10 µM was 18% and the IC50 is more than 1000 nM.

For the molecule `CC(C)(C)CC(=O)N1CCN2C(=O)c3cc(-c4ccc(Cl)cc4F)ccc3N(CC(N)=O)C(=O)C2C1` (stereo not shown) [Compound A145], the remaining activity at 10 µM stood at 2% and the IC50 lay within 100 to 1000 nM.

The IC50 is the concentration that gives 50% inhibition.
